# Where a name gives a salt, the structure may show the parent alone. Read-outs that look alike come from different tables or passages of the source.
# Test system: HIV-1Ba-L
# Test: HIV-1 Replication in PM1 Cell Culture Assay
# Type: cell-based
# Details: read-out: IC50 μM HIV-1 PM1
# From the text: C:HIV-1 Replication in PM1 Cell Culture Assay
# Evaluation of the in vitro anti-HIV-1Ba-L activity in PM1 cell line: PM1 cell line which is a continuous CD4+ T-cell clone originally derived from a neoplastic T-cell line is used. PM1 is characterized by a unique susceptibility to a wide range of HIV-1 isolates, including primary and biologically pure macrophage-tropic isolates. Drugs are serially diluted (9 concentrations in duplicates) and added to wells of a flat bottom 96-well plate. PM1 cells are infected with HIV-1Ba-L at a multiplicity of infection of 0.5 for a period of 3 hours. Unbound viruses are removed by washing the cells two times through centrifugation followed by seeding the cells into a 96-well plate in the presence of the serially diluted test compounds with final concentrations ranging from 0.00256 to 5000 ηM. Thereafter, plates were incubated for a period of 6 days at 37° C. in a CO2 incubator. Thereafter, culture supernatants are collected at day 6 and stored at −80° C. for viral quantification. The amount of virus present in cell culture supernatants is quantified using a reverse transcriptase assay. The concentration causing 50% inhibition of viral replication (IC50) is calculated using Graph Pad Prism software.
# [1] = Human immunodeficiency virus 1, 144 h, PM1 cell line infected with HIV-1Ba-L, 6 days, reverse transcriptase assay of supernatant
# [2] = Human immunodeficiency virus 1, PM1, 144 h
Structure (SMILES),IC50 [1] [µM],IC50 [2] [µM]
"CC(C)(C)OC(=O)N1C[C@H](CN2CCC3(CC2)NC(=O)N(Cc2ccc(Br)cc2)C3=O)[C@@H](c2ccccc2)C1 [Compound 1, (3S,4S)-3-[3-(4-Bromo-benzyl)-2,4-dioxo-1,3,8-triaza-spiro[4.5]dec-8-ylmethyl]-4-phenyl-pyrrolidine-1-carboxylic acid tert-butyl ester]",< 1,
"CS(=O)(=O)c1ccc(CN2C(=O)NC3(CCN(C[C@H]4CN(C(=O)c5ccccc5F)C[C@@H]4c4ccccc4)CC3)C2=O)cc1 [Compound 20, 8-[(3S,4S)-1-(2-Fluoro-benzoyl)-4-phenyl-pyrrolidin-3-ylmethyl]-3-(4-methanesulfonyl-benzyl)-1,3,8-triaza-spiro[4.5]decane-2,4-dione hydrochloride]",,< 1
"CC(C)(C)OC(=O)N1C[C@H](CN2CCC3(CC2)NC(=O)N(Cc2ccc(S(C)(=O)=O)cc2)C3=O)[C@@H](c2ccccc2)C1 [Compound 3, (3S,4S)-3-[3-(4-Methanesulfonyl-benzyl)-2,4-dioxo-1,3,8-triaza-spiro[4.5]dec-8-ylmethyl]-4-phenyl-pyrrolidine-1-carboxylic acid tert-butyl ester]",< 1,
"COc1ccc(CN2C(=O)NC3(CCN(C[C@H]4CN(C(=O)OC(C)(C)C)C[C@@H]4c4ccccc4)CC3)C2=O)cc1 [Compound 2, (3S,4S)-3-[3-(4-Methoxy-benzyl)-2,4-dioxo-1,3,8-triaza-spiro[4.5]dec-8-ylmethyl]-4-phenyl-pyrrolidine-1-carboxylic acid tert-butyl ester]",< 1,
"CS(=O)(=O)c1ccc(CN2C(=O)NC3(CCN(C[C@H]4CN(C(=O)C5CCC(F)(F)CC5)C[C@@H]4c4ccccc4)CC3)C2=O)cc1 [Compound 19, 8-[(3S,4S)-1-(4,4-Difluoro-cyclohexanecarbonyl)-4-phenyl-pyrrolidin-3-ylmethyl]-3-(4-methanesulfonyl-benzyl)-1,3,8-triaza-spiro[4.5]decane-2,4-dione hydrochloride]",,< 1
"CCC(=O)N1C[C@H](CN2CCC3(CC2)NC(=O)N(Cc2ccc(S(C)(=O)=O)cc2)C3=O)[C@@H](c2ccccc2)C1 [Compound 15, 3-(4-Methanesulfonyl-benzyl)-8-((3S,4S)-4-phenyl-1-propionyl-pyrrolidin-3-ylmethyl)-1,3,8-triaza-spiro[4.5]decane-2,4-dione hydrochloride]",,< 1
"CC(C)(C)CC(=O)N1C[C@H](CN2CCC3(CC2)NC(=O)N(Cc2ccc(S(C)(=O)=O)cc2)C3=O)[C@@H](c2ccccc2)C1 [Compound 23, 8-[(3S,4S)-1-(3,3-Dimethyl-butyryl)-4-phenyl-pyrrolidin-3-ylmethyl]-3-(4-methanesulfonyl-benzyl)-1,3,8-triaza-spiro[4.5]decane-2,4-dione hydrochloride]",,< 1
"CCCN1C(=O)N(CC)C2(CCN(C[C@H]3CN(C(=O)CC(C)(C)C)C[C@@H]3c3ccccc3)CC2)C1=O [Compound 24, 8-[(3S,4S)-1-(3,3-Dimethyl-butyryl)-4-phenyl-pyrrolidin-3-ylmethyl]-1-ethyl-3-propyl-1,3,8-triaza-spiro[4.5]decane-2,4-dione hydrochloride]",,< 1
"CS(=O)(=O)c1ccc(CN2C(=O)NC3(CCN(C[C@H]4CN(C(=O)CC5CC5)C[C@@H]4c4ccccc4)CC3)C2=O)cc1 [Compound 17, 8-[(3S,4S)-1-(2-Cyclopropyl-acetyl)-4-phenyl-pyrrolidin-3-ylmethyl]-3-(4-methanesulfonyl-benzyl)-1,3,8-triaza-spiro[4.5]decane-2,4-dione hydrochloride]",,< 1
"CS(=O)(=O)c1ccc(CN2C(=O)NC3(CCN(C[C@H]4CN(C(=O)C5CCCC5)C[C@@H]4c4ccccc4)CC3)C2=O)cc1 [Compound 18, 8-((3S,4S)-1-Cyclopentanecarbonyl-4-phenyl-pyrrolidin-3-ylmethyl)-3-(4-methanesulfonyl-benzyl)-1,3,8-triaza-spiro[4.5]decane-2,4-dione hydrochloride]",,< 1
"CN(C)S(=O)(=O)c1ccc(CN2C(=O)NC3(CCN(C[C@H]4CN(C(=O)C5CCC(F)(F)CC5)C[C@@H]4c4ccccc4)CC3)C2=O)cc1 [Compound 22, 4-{8-[(3S,4S)-1-(4,4-Difluoro-cyclohexanecarbonyl)-4-phenyl-pyrrolidin-3-ylmethyl]-2,4-dioxo-1,3,8-triaza-spiro[4.5]dec-3-ylmethyl}-N,N-dimethyl-benzenesulfonamide hydrochloride]",,< 1
"CS(=O)(=O)c1ccc(CN2C(=O)NC3(CCN(C[C@H]4CN(C(=O)c5ccccc5Cl)C[C@@H]4c4ccccc4)CC3)C2=O)cc1 [Compound 21, 8-[(3S,4S)-1-(2-Chloro-benzoyl)-4-phenyl-pyrrolidin-3-ylmethyl]-3-(4-methanesulfonyl-benzyl)-1,3,8-triaza-spiro[4.5]decane-2,4-dione hydrochloride]",,< 1
"CC1(C(=O)N2C[C@H](CN3CCC4(CC3)NC(=O)N(Cc3ccc(S(C)(=O)=O)cc3)C4=O)[C@@H](c3ccccc3)C2)CC1 [Compound 16, 3-(4-Methanesulfonyl-benzyl)-8-[(3S,4S)-1-(1-methyl-cyclopropanecarbonyl)-4-phenyl-pyrrolidin-3-ylmethyl]-1,3,8-triaza-spiro[4.5]decane-2,4-dione hydrochloride]",,< 1

# Reference: US20100286183A1, “SPIROHYDANTOIN COMPOUNDS AND METHODS FOR THE MODULATION OF CHEMOKINE RECEPTOR ACTIVITY” (priority 2005, published 2010)
